In brackets after ≈: the same amount, converted by molar mass. Several values for one entry are separate records, joined by “and”; a condition that tells them apart may be missing. Equal entries are not always repeated. Where two headings read alike, the source gives them in different places. Marks after values point to notes of the source that are not given here. Blank lines part the entries; values can stand above or below the compound they belong to.
What was measured:
P. aeruginosa biofilms = conditions: after 100 h of exposure; cited from earlier work
[1] = tested on: Pseudomonas aeruginosa ATCC 27853 planktonic and biofilm bacteria; test: MBEC-HTP antibiotic susceptibility, P. aeruginosa; assay type: cell-based; conditions: CA-MHB, 24 h exposure
Experimental: (§1) Luria-Bertani medium was chosen for two reasons: 1) its established use in studies of metal resistance, and 2) because of the use of rich media in NCCLS testing protocols for antimicrobial resistance. Antibiotic resistance assays were performed using cation-adjusted Mueller-Hinton broth (CA-MHB, BDH Inc.) and subcultures, MBC and MBEC bacterial counts were performed using trypticase soy agar (TSA, Difco).
(§2) The present study used a novel high throughput method for screening biofilm susceptibility to metal cations and oxyanions: the MBEC device (MBEC Bioproducts Inc., Edmonton, Alberta, Canada, http://www.mbec.ca). The MBEC high throughput (MBEC-HTP) assay system consists of a shallow trough into which a plastic lid with 96 pegs fits. This peg lid also fits over a standard 96-well microtitre plate which can subsequently be used to setup serial dilutions of antimicrobial compounds. The bottom half of the MBEC device is a trough that has shallow channels that direct flow of an inoculated suspension over the pegs on the lid.
(§3) The inoculum was standardized to a 1.0 McFarland standard and verified by viable counts. The 1.0 McFarland standard inoculum was diluted 30-fold with growth media, which served as the growth suspension to inoculate the MBECJ device.
(§4) P. aeruginosa was incubated for 9 h, S. aureus for 24 h and E. coli for 24 h to generate approximately equivalent biofilms of 6.0×10^6 cfu/peg. Following the incubation period, growth of biofilm and planktonic cultures in the MBECJ device were discerned and verified by viable cell counts.
(§5) Chloramphenicol (Sigma) was prepared in 50% ethanol and treated identically to the other antibiotics. 10% ethanol was added to the growth controls for chloramphenicol assays. […] Starting with the working solutions, serial two-fold dilutions were made in the wells of a 96-well plate (the challenge plate), leaving the first well of each row as a sterility control and the second as a growth control (i.e. no antibiotic).

[2] = tested on: Escherichia coli JM109 planktonic and biofilm bacteria; test: MBEC-HTP antibiotic susceptibility, E. coli; assay type: cell-based; conditions: CA-MHB, 24 h exposure
Experimental: as §1, §2, §3, §4, §5

[3] = tested on: Pseudomonas aeruginosa 15442; test: Synergy matrix assay of polycide versus metals; assay type: cell-based
[4] = tested on: Escherichia coli JM109 planktonic and biofilm bacteria; assay type: cell-based; conditions: LB+B1, 24 h exposure; for MIC: E. coli JM109; for MBEC: E. coli JM109 biofilm; for MBC: E. coli JM109 planktonic
[5] = tested on: Pseudomonas aeruginosa ATCC 27853 planktonic and biofilm bacteria; assay type: cell-based; conditions: LB+B1, 24 h exposure; for MIC: P. aeruginosa ATCC 27853; for MBEC: P. aeruginosa ATCC 27853 biofilm; for MBC: P. aeruginosa ATCC 27853 planktonic
[6] = tested on: Pseudomonas aeruginosa ATCC 27853 planktonic and biofilm cultures; assay type: cell-based; conditions: for Fold Tolerance (MBEC:MBC100) / MBEC / MBC100: MSVP; for MBEC: biofilm; for MIC: minimal media (MSVP), did not change with exposure time, mean ± SD of 28 trials; for MBC100: planktonic
[7] = tested on: Staphylococcus aureus ATCC 29213 planktonic and biofilm bacteria; assay type: cell-based; conditions: LB+B1, 24 h exposure; for MIC: S. aureus ATCC 29213; for MBEC: S. aureus ATCC 29213 biofilm; for MBC: S. aureus ATCC 29213 planktonic
[8] = tested on: Pseudomonas aeruginosa ATCC 27853 planktonic and biofilm cultures; assay type: cell-based; conditions: for Fold Tolerance (MBEC:MBC100) / MBEC / MBC100: LB+B1; for MBEC: biofilm; for MBC100: planktonic; for MIC: rich media (LB+B1), 4 replicates
[9] = tested on: Pseudomonas aeruginosa biofilms; test: Metal and antibiotic combination assay; assay type: cell-based; conditions: for MBC / MBEC / MIC: median of 4 replicates
Experimental: Cells were grown to a mean density of 6.0×10^6 cfu/peg in LB+B1 media.
• 1. […] All data are median values based on 4 replicates.

[10] = tested on: Pseudomonas aeruginosa ATCC 27853 cell populations; assay type: cell-based; conditions: for eradication of the biofilm cultures with extended exposure times: 27 hours exposure
[11] = antibiotic or heavy metal alone, LB+B1

MIC ([1]; Pseudomonas aeruginosa, ATCC27853, P. aeruginosa ATCC 27853, read-out: MIC): 14 ± 4 µg/mL (≈ 29.9 µM)
MIC ([2]; Escherichia coli, E. coli JM109, read-out: MIC): 4 µg/mL (≈ 8.56 µM)
Compound: NC[C@H]1O[C@H](O[C@H]2[C@H](O)[C@@H](O[C@H]3O[C@H](CO)[C@@H](O)[C@H](N)[C@H]3O)[C@H](N)C[C@@H]2N)[C@H](N)C[C@@H]1O [Tobramycin]
log10 reduction in viable cell counts of biofilms (P. aeruginosa biofilms): less than 0.5 log10
MBEC ([1]; P. aeruginosa ATCC 27853 biofilm): 112 ± 32 µg/mL
MBC ([1]; Pseudomonas aeruginosa, ATCC27853, P. aeruginosa ATCC 27853 planktonic, read-out: MBC): 28 ± 8 µg/mL (≈ 59.9 µM)
MBEC ([2]; E. coli JM109 biofilm): 16 ± 0 µg/mL
MBC ([2]; Escherichia coli, E. coli JM109 planktonic, read-out: MBC): 8 µg/mL (≈ 17.1 µM)

Compound: O.O.O.O.O.O=S(=O)([O-])[O-].[Cu+2] [Cu^2+, cupric sulphate]
effect on the efficacy of the polycide ([3]; adding as little as 16 micrograms per ml of the metal): quadruple
MIC [4]: 4.5 ± 1.4 mM
MBEC [4]: 13 ± 4 mM
MBC [4]: 15 ± 3 mM
MIC [5]: 12 ± 5 mM
MBEC [5]: 14 ± 4.0 mM
MBC [5]: 14 ± 4.0 mM
Fold Tolerance (MBEC:MBC100) ([6]; exposure time 8 to 10 h): 2.0
Fold Tolerance (MBEC:MBC100) ([6]; exposure time 4 h): 2.0
Fold Tolerance (MBEC:MBC100) ([6]; exposure time 6 h): 1.7
Fold Tolerance (MBEC:MBC100) ([6]; exposure time 27 h): 1.1
MBEC ([6]; exposure time 8 to 10 h): 32 ± 0 mM
MBEC ([6]; exposure time 2 h): ≧258 mM
MBEC ([6]; exposure time 4 h): 64 ± 45 mM
MBEC ([6]; exposure time 6 h): 36 ± 20 mM
MBEC ([6]; exposure time 27 h): 21 ± 11 mM
MIC [6]: 3.8 ± 1.9 mM
MBC100 ([6]; exposure time 8 to 10 h): 16 ± 0 mM
MBC100 ([6]; exposure time 2 h): 20 ± 8 mM
MBC100 ([6]; exposure time 4 h): 32 ± 0 mM
MBC100 ([6]; exposure time 6 h): 21 ± 14 mM
MBC100 ([6]; exposure time 27 h): 19 ± 11 mM
MIC [7]: 2.0 ± 0 mM
MBEC [7]: 2.0 ± 0 mM
MBC [7]: 2.0 ± 0 mM
Fold Tolerance (MBEC:MBC100) ([8]; exposure time 2 h): 4.5
Fold Tolerance (MBEC:MBC100) ([8]; exposure time 27 h): 1.0
MBEC ([8]; exposure time 2 h): 72 ± 40 mM
MBEC ([8]; exposure time 27 h): 16 ± 0 mM
MBC100 ([8]; exposure time 2 h): 16 ± 0 mM
MBC100 ([8]; exposure time 27 h): 16 ± 0 mM
MIC [8]: 12 ± 5 mM
MBC [9, 11]: 1024 µg/mL
MBEC [9, 11]: 1024 µg/mL
MIC [9, 11]: 512 to 1024 µg/mL
eradication of the biofilm cultures with extended exposure times [10]: complete eradication

Compound: lead nitrate [Pb^2+]
Fold Tolerance (MBEC:MBC100) ([6]; exposure time 2 to 4 h): 4.0
Fold Tolerance (MBEC:MBC100) ([6]; exposure time 6 h): 3.0
Fold Tolerance (MBEC:MBC100) ([6]; exposure time 8 h): 4.9
Fold Tolerance (MBEC:MBC100) ([6]; exposure time 10 h): 3.0
Fold Tolerance (MBEC:MBC100) ([6]; exposure time 27 h): 1.6
MBEC ([6]; exposure time 2 to 4 h): ≧79 mM
MBEC ([6]; exposure time 6 h): ≧79 mM
MBEC ([6]; exposure time 8 h): 59 ± 23 mM
MBEC ([6]; exposure time 10 h): 59 ± 23 mM
MBEC ([6]; exposure time 27 h): 26 ± 15 mM
MIC [6]: 1.2 ± 0 mM
MBC100 ([6]; exposure time 2 to 4 h): 20 ± 0 mM
MBC100 ([6]; exposure time 6 h): 30 ± 11 mM
MBC100 ([6]; exposure time 8 h): 12 ± 5 mM
MBC100 ([6]; exposure time 10 h): 20 ± 0 mM
MBC100 ([6]; exposure time 27 h): 16 ± 6 mM
Fold Tolerance (MBEC:MBC100) ([8]; exposure time 27 h): 0.7
MBEC ([8]; exposure time 2 h): >40 mM
MBEC ([8]; exposure time 27 h): 59 ± 23 mM
MBC100 ([8]; exposure time 2 h): >40 mM
MIC [8]: 12 ± 5 mM
eradication of the biofilm cultures with extended exposure times [10]: complete eradication

Compound: O=S(=O)([O-])[O-].[Zn+2] [Zn^2+, zinc sulphate]
synergistic effect on polycide activity [3]: did not appear to have any synergistic effect
MIC [4]: 2.2 ± 0.7 mM
MBEC [4]: 31 ± 0 mM
MBC [4]: 31 ± 0 mM
MIC [5]: 78 ± 31 mM
MBEC [5]: >125 mM
MBC [5]: >125 mM
Fold Tolerance (MBEC:MBC100) ([6]; exposure time 10 h): 2.3
Fold Tolerance (MBEC:MBC100) ([6]; exposure time 27 h): 1.0
MBEC ([6]; exposure time 2 to 8 h): >125 mM
MBEC ([6]; exposure time 10 h): ≧256 mM
MBEC ([6]; exposure time 27 h): 102 ± 47 mM
MIC [6]: 9.5 mM and 9.5 ± 3.3 mM
MBC100 ([6]; exposure time 2 to 8 h): >125 mM
MBC100 ([6]; exposure time 10 h): 109 ± 31 mM
MBC100 ([6]; exposure time 27 h): 102 ± 47 mM
MIC [7]: 2.0 ± 0 mM
MBEC [7]: >125 mM
MBC [7]: >125 mM
MBEC ([8]; exposure time 2 or 27 h): >125 mM
MBC100 ([8]; exposure time 2 or 27 h): >125 mM
MIC [8]: 78 ± 31 mM
MBC [9, 11]: >8192 µg/mL
MBEC [9, 11]: >8192 µg/mL
MIC [9, 11]: 4096 µg/mL
biofilm killed ([10]; 2 h exposure, FIG. 2 Panel A): 90-99%
concentration tolerated by the surviving population ([10]; less than 0.1% survival of biofilm and planktonic cell populations): > 125 mM

Compound: [Cl-].[Cl-].[Co+2] [Co^2+, cobalt (II) chloride]
Fold Tolerance (MBEC:MBC100) ([6]; exposure time 2 to 6 h): 2.0
Fold Tolerance (MBEC:MBC100) ([6]; exposure time 2 h): at least 2
Fold Tolerance (MBEC:MBC100) ([6]; exposure time 8 h): 1.3
Fold Tolerance (MBEC:MBC100) ([6]; exposure time 10 h): 1.2
Fold Tolerance (MBEC:MBC100) ([6]; exposure time 27 h): 1.0
MBEC ([6]; exposure time 2 to 6 h): ≧278 mM
MBEC ([6]; exposure time 8 h): 139 ± 0 mM
MBEC ([6]; exposure time 10 h): 209 ± 80 mM
MBEC ([6]; exposure time 27 h): 116 ± 36 mM
MIC [6]: 2.0 ± 0.8 mM
MBC100 ([6]; exposure time 2 to 6 h): 139 ± 0 mM
MBC100 ([6]; exposure time 8 h): 104 ± 40 mM
MBC100 ([6]; exposure time 10 h): 174 ± 70 mM
MBC100 ([6]; exposure time 27 h): 114 ± 44 mM
Fold Tolerance (MBEC:MBC100) ([8]; exposure time 2 h): 2.7
Fold Tolerance (MBEC:MBC100) ([8]; exposure time 27 h): 2.0
MBEC ([8]; exposure time 2 h): ≧280 mM
MBEC ([8]; exposure time 27 h): ≧280 mM
MBC100 ([8]; exposure time 2 h): 104 ± 40 mM
MBC100 ([8]; exposure time 27 h): 140 ± 0 mM
MIC [8]: 7.6 ± 2.2 mM
eradication of the biofilm cultures with extended exposure times [10]: complete eradication

Compound: O=C(O)c1cn(C2CC2)c2cc(N3CCNCC3)c(F)cc2c1=O [Ciprofloxacin]
log10 reduction in viable cell counts of biofilms (P. aeruginosa biofilms): < 1.5 log10
MBEC in the presence of Cu^2+, times less than the MBEC for the antibiotic alone ([9]; 200 μg/ml Cu^2+): at least 16 times
MBC ([9]; Pseudomonas aeruginosa, antibiotic in combination with 200 μg/ml Cu^2+, read-out: MBC): 8 µg/mL
MIC ([9]; Pseudomonas aeruginosa, antibiotic in combination with 200 μg/ml Cu^2+, read-out: MIC): 4 µg/mL
MBC ([9]; Pseudomonas aeruginosa, antibiotic in combination with 500 μg/ml Zn^2+, read-out: MBC): 32 µg/mL
MIC ([9]; Pseudomonas aeruginosa, antibiotic in combination with 500 μg/ml Zn^2+, read-out: MIC): 0.25 to 1 µg/mL
MBC ([9]; Pseudomonas aeruginosa, antibiotic or heavy metal alone, LB+B1, read-out: MBC): 8 µg/mL
MBEC ([9]; antibiotic in combination with 200 μg/ml Cu^2+): 16** μg/ml
MBEC ([9]; antibiotic in combination with 500 μg/ml Zn^2+): >64 µg/mL
